This note sets out measurements from patent US20230149419A1, “COMPOSITION FOR PREVENTING OR TREATING NEUROINFLAMMATORY DISEASES, COMPRISING CHLORPROMAZINE” (GliaCellTech Inc., priority 2020, published 2023).

Experiment [1] has as its system primary microglia from wild-type mice. The experiment is described as follows: Effect of REV-ERBα agonist on LPS-induced IL-6 secretion (ELISA), wild-type microglia. Type of experiment: cell-based, mouse. Particulars: for IL-6 secreted: WT microglia. The protocol:
(§1) The efficacy of SR9009 was evaluated by analyzing IL-6 at protein and mRNA expression levels according to post-LPS treatment time (2, 6, 12, and 24 hours) in the same ELISA and qRT-PCR as in Example 5.

Experiment [2] concerns primary microglia from Psen2 mutation mouse model of Alzheimer's disease. The experiment is described as follows: Effect of REV-ERBα agonist on LPS-induced IL-6 mRNA (qRT-PCR), Psen2 mutation microglia. Conditions: for IL-6 mRNA expression level: KI/+ microglia. The experiment is classed as cell-based. The procedure: as §1
In experiment [3] the test system is primary microglia from wild-type mice. The experiment is described as follows: Effect of REV-ERBα agonist on LPS-induced IL-6 mRNA (qRT-PCR), wild-type microglia. Type of experiment: cell-based, mouse. Conditions: for IL-6 mRNA expression level: WT microglia. The procedure: as §1
Experiment [4] concerns primary microglia from Psen2 mutation mouse model of Alzheimer's disease. The experiment is described as follows: Effect of REV-ERBα agonist on LPS-induced IL-6 secretion (ELISA), Psen2 mutation microglia. Conditions: for IL-6 secreted: KI/+ microglia. Type of experiment: cell-based. The procedure: as §1
Where [5] appears, read: wild-type microglia, group 32 vs 31, 2, 6, 12 and 24 hours.
Where [6] appears, read: 10 NM SR9009, LPS 1 μg/mL 2 h (Group 34).
Where [7] appears, read: 10 NM SR9009, LPS 1 μg/mL 6 h (Group 34).
Setting [8] is: 10 NM SR9009, LPS 1 μg/mL 12 h (Group 34).
Setting [9] is: 10 NM SR9009, LPS 1 μg/mL 24 h (Group 34).

Regarding `CCOC(=O)N1CCC(CN(Cc2ccc(Cl)cc2)Cc2ccc([N+](=O)[O-])s2)C1` (centres unmarked) [SR9009], the IL-6 secreted in experiment [1] (10 NM SR9009, LPS 1 μg/mL 2 h (Group 32)) stood at 24.467 pg/mL; in experiment [1] (10 NM SR9009, LPS 1 μg/mL 6 h (Group 32)), 85.630 pg/mL; in experiment [1] (10 NM SR9009, LPS 1 μg/mL 12 h (Group 32)), 361.583 pg/mL; in experiment [1] (10 NM SR9009, LPS 1 μg/mL 24 h (Group 32)) it was 555.053 pg/mL; in experiment [4] (setting [6]) it was 38.229 pg/mL; in experiment [4] (setting [7]) it was 332.114 pg/mL. The figures for the IL-6 secreted in experiment [4] (setting [8]) and in experiment [4] (setting [9]) were 1146.560 pg/mL and 1657.510 pg/mL, respectively. Besides, the “production of IL-6 (in words)” value in experiment [1] (setting [5]) was “repressed the production of IL-6”; in experiment [4] (Psen2 mutation microglia, SR9009-treated group vs group 33), “cannot repress”. The “IL-6 mRNA expression level” value worked out at 1.134 fold in experiment [2] (setting [6]); 7.810 fold in experiment [2] (setting [7]); 8.512 fold in experiment [2] (setting [8]); 11.141 fold in experiment [2] (setting [9]); 0.456 fold in experiment [3] (SR9009, LPS 1 μg/mL 2 h (Group 32)); 1.098 fold in experiment [3] (SR9009, LPS 1 μg/mL 6 h (Group 32)). For the same compound, the “IL-6 mRNA expression level” value in experiment [3] (SR9009, LPS 1 μg/mL 12 h (Group 32)) came out at 1.129 fold; in experiment [3] (SR9009, LPS 1 μg/mL 24 h (Group 32)), 2.150 fold. Moreover, the “mRNA expression of IL-6 (in words)” value in experiment [2] (Psen2 mutant microglia, group 34 vs 33) is listed as “cannot repress”; in experiment [3] (setting [5]) it was “repressed the mRNA expression of IL-6”.
